Data reported in patent US4150135A, “Substituted 4a-phenyl-N-phenylalkyl-cis-decahydroisoquinolines” (priority 1977, dated 1979).
Where a name gives a salt, the structure may show the parent alone.

Test system: mice (phenylquinone-induced stretching or writhing syndrome)
Assay: standard phenylquinone writhing test (PQW), oral analgesia in mice
Format: in vivo, female white mice
Details: Mus musculus, po, read-out: PQW ED50
Procedure: A standard procedure for detecting and comparing the analgesic activity of compounds in this series for which there is good correlation with human efficacy is the standard phenylquinone writhing test (PQW) modified from Siegmund, et al., Proc. Soc. Exp. Biol. Med. 95, 729 (1957). A test compound suspended in 1% methylcellulose was given orally to fasted (17-21 hours) female white mice, 5-20 animals per dose in a double blind test. Aqueous (0.01% phenyl-p-benzoquinone) phenylquinone was injected intraperitoneally at 23 or 30 minutes later using 0.20 ml per mouse. […] The effective analgesic dose for 50% of the mice (ED 50) was calculated by the moving average method of Weil, Biometrics 8, 249 (1952).

SMILES	ED50 [mg/kg]
CN1CC[C@]23c4c5ccc(O)c4O[C@H]2[C@@H](O)C=C[C@H]3[C@H]1C5 [Morphine H2 SO4, reference compound]	1.6

Same assay, conditions: Mus musculus, po; mice; phenylquinone i.p.; effective analgesic dose for 50% of the mice (Table II); read-out: PQW ED50

SMILES	ED50 [mg/kg]
COc1cccc(C23CCCCC2CN(CCc2ccc(C)cc2)CC3)c1 (stereo not drawn)	11
Oc1cccc(C23CCCCC2CN(CCc2ccc(Cl)cc2)CC3)c1 (stereo not drawn)	28
CC(C)=CCN1CC[C@]2(c3cccc(O)c3)CCCC[C@@H]2C1 (relative stereo) [CH2CHC(CH3)2 m-OH, N-(3,3-Dimethylallyl)-4a-(m-hydroxyphenyl)-cis-decahydroisoquinoline]	40
C=CCN1CC[C@]2(c3cccc(O)c3)CCCC[C@@H]2C1 (relative stereo) [CH2CHCH2 m-OH, N-Allyl-4a-(m-hydroxyphenyl)-cis-decahydroisoquinoline]	43
CN1CCC2(c3cccc(O)c3)CCCCC2C1 (stereo not drawn) [CH3 m-OH]	2.9
COc1cccc(C23CCCCC2CN(CCc2ccc(F)cc2)CC3)c1 (stereo not drawn)	33
Oc1cccc(C23CCCCC2CN(CC2CCC2)CC3)c1 (stereo not drawn)	20
COc1cccc(C23CCCCC2CN(CC2CCC2)CC3)c1 (stereo not drawn)	18.5
CCCCCN1CCC2(c3cccc(OC)c3)CCCCC2C1 (stereo not drawn) [C5 H11 m-OCH3]	20
COc1cccc(C23CCCCC2CN(CCc2ccco2)CC3)c1 (stereo not drawn)	25
COc1cccc(C23CCCCC2CN(CCc2ccc(N(C)C)cc2)CC3)c1 (stereo not drawn)	15.1
COc1cccc(C23CCCCC2CN(CC2CC2)CC3)c1 (stereo not drawn)	14
CC(=O)Oc1ccccc1C(=O)O [Aspirin, reference compound]	109
CC(=O)Oc1cccc(C23CCCCC2CN(CCc2cccs2)CC3)c1 (stereo not drawn)	27
Oc1cccc(C23CCCCC2CN(CCc2cccs2)CC3)c1 (stereo not drawn)	24
Oc1ccc2c3c1O[C@H]1[C@@H](O)CC[C@@]4(O)[C@@H](C2)N(CC2CCC2)CC[C@]314 [Nalbuphine HCl, reference compound]	8.4
Oc1cccc(C23CCCCC2CN(CC2CC2)CC3)c1 (stereo not drawn)	20
COc1cccc(C23CCCCC2CN(CCc2cccs2)CC3)c1 (stereo not drawn)	27
Oc1cccc(C23CCCCC2CN(CCc2ccccc2)CC3)c1 (stereo not drawn)	21
CC(C)=CCN1CCC2(C)c3cc(O)ccc3CC1C2C.Cl (stereo not drawn) [Pentazocine HCl, reference compound]	57
COc1cccc(C23CCCCC2CN(CCc2ccc(Cl)cc2)CC3)c1 (stereo not drawn)	16
COc1cccc(C23CCCCC2CN(CCc2ccccc2)CC3)c1 (stereo not drawn)	14.5
COc1ccc2c3c1O[C@H]1[C@@H](O)C=C[C@H]4[C@@H](C2)N(C)CC[C@@]341 [Codeine H3 PO4, reference compound]	8
CN1CC[C@]2(c3ccc(F)cc3)CCCC[C@@H]2C1 (relative stereo) [CH3 p-F, N-methyl-4a-(p-fluorophenyl)-cis-decahydroisoquinoline]	26
Cc1ccc(CCN2CCC3(c4cccc(O)c4)CCCCC3C2)cc1 (stereo not drawn)	9.7

Same assay, conditions: Mus musculus, po; mouse (Table III, additional compounds); read-out: Mouse ED50 Analgesia (PQW)-Oral

SMILES	ED50 [mg/kg]
CC1CCC2CN(CCc3ccccc3)CCC2(c2cccc(O)c2)C1 (stereo not drawn) [Example 27-C, N-Phenethyl-4a-m-hydroxyphenyl-6β-methyl-cis-decahydroisoquinoline]	10.8
COc1cccc(C23CCN(C)CC2CCC(C)C3)c1 (stereo not drawn) [Example 23, N-Methyl-4a-m-methoxyphenyl-6β-methyl-cis-decahydroisoquinoline]	3.5
COc1cccc(C23CCN(CCc4ccc(C)cc4)CC2CCC(C)C3)c1 (stereo not drawn) [Example 20-G, N-(p-Tolylethyl)-4a-m-methoxyphenyl-6β-methyl-cis-decahydroisoquinoline]	28
COc1cccc(C23CCN(Cc4ccco4)CC2CCC(C)C3)c1 (stereo not drawn) [Example 28, N-(2-Furylmethyl)-4a-m-methoxyphenyl-6β-methyl-cis-decahydroisoquinoline]	61
CC1CCC2CN(CC3CCC3)CCC2(c2cccc(O)c2)C1 (stereo not drawn) [Example 22-C, N-Cyclobutylmethyl-4a-m-hydroxyphenyl-6β-methyl-cis-decahydroisoquinoline]	54

Same assay, conditions: oral; mouse (Table III, additional compounds)

SMILES	Mouse ED50 Analgesia (PQW)-Oral [mg/kg]
COc1cccc(C23CCN(CCc4ccc(C)cc4)CC2CCC(C)C3)c1 (stereo not drawn) [Example 20-G, N-(p-Tolylethyl)-4a-m-methoxyphenyl-6β-methyl-cis-decahydroisoquinoline]	22

Test system: not given
Assay: not given
Details: J. Am. Chem. Soc. 72, 712 (1950); cited from earlier work

SMILES	analgesic activity
CN1CC[C@]2(c3ccccc3)CCCC[C@@H]2C1 (relative stereo) [N-Methyl-4a-phenyl-cis-decahydroisoquinoline]	low analgesic activity
